In patent EP0688431B1, “METHOD FOR SCREENING CATALYTIC NON-ENZYME POLYPEPTIDES AND PROTEINS” (YEDA RESEARCH AND DEVELOPMENT CO. LTD., priority 1993, dated 1994):

Target: antibody D2.3
Assay: Binding of the product to the catalytic antibody
Parameters: species or system Balb/c mice
Settings: binding to antibody D2.3

Kd: 52 µM
SMILES: O=[N+]([O-])c1ccc(CO)cc1 [p-nitrobenzyl alcohol]
